“Also recorded” adds a separate entry of the source.

The target of one test is T1, PLCδ-PH (Rattus norvegicus, UniProt P10688).
T1 construct: initiator methionine (N); made in house; host or cells: Escherichia coli (pET11a, T7 system)
T1 sequence (P10688 20-136): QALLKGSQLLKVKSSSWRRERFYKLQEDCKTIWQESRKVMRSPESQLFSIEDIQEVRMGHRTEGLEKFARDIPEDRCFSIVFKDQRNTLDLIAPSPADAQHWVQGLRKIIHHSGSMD
In words: Spin-column competition assay for 3H-I(145)P3 binding to PLCδ-PH. As for the experimental part: A spin-column based competition assay was employed to determine relative affinities of other inositol polyphosphates for PLCδ-PH. […] The sample (40 μl) was then applied to a Biogel P6 gel filtration spin-column. […] Each curve represents the mean of two or more experiments.
The sample was then applied to a pre-spun 1 ml spin-column containing Biogel P6 desalting medium. The spin-column was then centrifuged for 4 minutes at 900 g. Essentially all of the protein was determined to pass through the column under these conditions, and no significant counts were seen to pass through the column in the absence of protein. After spinning, all of the material that passed through the column was added to scintillation fluid for counting. Counts were normalized to those obtained in the absence of competitor, and plotted as fraction of maximal binding. […]
Values for which a precise number is given represent the mean of at least two experiments.

The next test concerns the target T2, Dyn-PH (Homo sapiens, UniProt Q05193).
T2 construct: The PH domains from PLC-δ1, and dynamin, as well as the N-terminal PH domain of pleckstrin; made in house; host or cells: Escherichia coli (T7 system)
T2 sequence (Q05193 519-625 limits assumed): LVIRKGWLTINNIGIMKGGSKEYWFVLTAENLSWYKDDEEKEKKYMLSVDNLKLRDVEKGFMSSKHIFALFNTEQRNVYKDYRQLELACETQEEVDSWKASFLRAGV
In words: Equilibrium gel filtration (Hummel and Dreyer) of PH domain binding to lipid vesicles. The conditions noted are these: PIP2-containing vesicles. As to the method: A 150×7.5 mm Superdex 75 column, attached to a Dionex HPLC system, was equilibrated with buffer containing PH domain at around 5 μM (depending upon the experiment). A suspension of vesicles that also contained 5 μM PH domain was then injected. In the absence of interaction between the PH domain and the vesicles, the resulting column profile (detected by absorbance at 280 nm) reflects only the lipid peak. However, if there is significant interaction, a trough is observed at a position corresponding to the elution position of the free PH domain, since the lipids have removed free PH domain from the column buffer. When such a trough was observed, in order to determine a KD for the interaction, a series of higher concentrations of PH domain were injected, all with constant lipid concentration. A plot of trough area against [PH] in the injected sample was linear, becoming positive when excess free protein was present in the injected sample (see FIG. 5B). This line was used to determine the point at which no trough was observed. […] Since [PH]total as well as [lipid]total in the injected sample are known, KD can be determined, as KD=([PH]free×[lipid]free)/[complex]. […]
We also utilized the equilibrium gel-filtration approach described by Hummel, J. P., and Dreyer, W. J., Biochim. […] If an interaction is observed, its KD can be determined as described in Experimental Procedures. […]

For the next test, the target named is T3, whole PLC-δ1 (Homo sapiens, UniProt P51178).
T3 sequence (P51178 1-756): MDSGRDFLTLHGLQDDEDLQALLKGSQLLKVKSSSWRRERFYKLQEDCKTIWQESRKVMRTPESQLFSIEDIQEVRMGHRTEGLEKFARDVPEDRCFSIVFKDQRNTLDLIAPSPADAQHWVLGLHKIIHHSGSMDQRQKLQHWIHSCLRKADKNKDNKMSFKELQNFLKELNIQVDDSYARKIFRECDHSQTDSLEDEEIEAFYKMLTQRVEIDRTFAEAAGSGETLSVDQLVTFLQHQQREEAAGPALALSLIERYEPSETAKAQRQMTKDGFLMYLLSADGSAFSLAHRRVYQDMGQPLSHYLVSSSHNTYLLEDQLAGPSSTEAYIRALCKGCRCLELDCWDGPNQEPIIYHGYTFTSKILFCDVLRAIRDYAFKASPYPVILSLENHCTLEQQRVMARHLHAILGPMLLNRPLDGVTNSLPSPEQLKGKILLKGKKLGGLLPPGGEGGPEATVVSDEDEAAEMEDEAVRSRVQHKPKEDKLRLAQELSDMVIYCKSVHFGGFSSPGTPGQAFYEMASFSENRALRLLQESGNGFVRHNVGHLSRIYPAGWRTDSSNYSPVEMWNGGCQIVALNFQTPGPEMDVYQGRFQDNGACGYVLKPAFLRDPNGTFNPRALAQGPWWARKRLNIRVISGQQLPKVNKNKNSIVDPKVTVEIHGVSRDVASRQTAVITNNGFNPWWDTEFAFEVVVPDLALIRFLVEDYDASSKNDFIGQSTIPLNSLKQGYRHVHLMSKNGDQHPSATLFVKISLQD
To be noted: sucrose-loaded PIP2-containing vesicles; Rebecchi et al. 1992; read-out: apparent KD; cited from earlier work.

With “Phosphatidylinositol-(4,5)-bisphosphate [PIP2]”, the Kd is approximately 0.4 µM on PLCδ-PH (PIP2: 5% in DMPC vesicles, assuming 50% available, read-out: KD from competition assay) and approximately 2.5 µM at whole PLC-δ1. Further, the “competition for I(145)P3 binding by lipid vesicles” value on PLCδ-PH (lipid at 5% in DMPC vesicles or pure DMPC, assuming 50% of lipid on the surface) was “almost as effective as that seen with unlabelled I(145)P3; also recorded: as effectively as can GPIP2”. The “binding weaker than I(145)P3” value at PLCδ-PH (relative to I(145)P3 binding to PLCδ-PH) is reported as “two-fold weaker”. In addition, the binding to vesicles result on Dyn-PH is recorded as “no detectable binding”.

These data come from patent US7314620B2, “Methods for diagnosis and treatment of PH domain signal transduction disorders” (New York University, priority 1995, dated 2008).
